According to ChEMBL document CHEMBL2384899, “Synthesis and structure-activity relationships of phosphonic arginine mimetics as inhibitors of the M1 and M17 aminopeptidases from Plasmodium falciparum” (J Med Chem, 2013):

Experiments:
[1] = Inhibition of Plasmodium falciparum recombinant M17 leucyl aminopeptidase expressed in Escherichia coli assessed as conversion of L-leucine-7-amido-4-methylcoumarin hydrochloride to NHMec preincubated for 10 mins prior to substrate addition by Dixon plot analysis
[2] = Inhibition of Plasmodium falciparum recombinant M1 aminopeptidase expressed in Escherichia coli assessed as conversion of L-leucine-7-amido-4-methylcoumarin hydrochloride to NHMec preincubated for 10 mins prior to substrate addition by Dixon plot analysis

For `NCCCC(N)P(=O)(O)O` (stereo unspecified), the Ki [1] was over 1000 µM and the Ki [2] was over 1000 µM.

For `NC(N)=NCCCC(N)P(=O)(O)O` (stereo unspecified), the Ki [1] was over 1000 µM and the Ki [2] was 193 µM.

Work on `N=C(N)Nc1cccc(C(N)P(=O)(O)O)c1` (stereo unspecified) yielded a Ki [1] of 0.16 µM and a Ki [2] of over 1000 µM.

For `N=C(N)Nc1ccc(CC(N)P(=O)(O)O)cc1` (stereo unspecified), the Ki [1] was 63 µM and the Ki [2] was over 1000 µM.

`N=C(N)Nc1ccc(C(N)P(=O)(O)O)cc1` (stereo unspecified) showed a Ki [1] of 1.8 µM and a Ki [2] of 127 µM.

With `N=C(N)NCCCCC(N)P(=O)(O)O` (stereo unspecified) the Ki [1] was 268 µM and the Ki [2] was 11 µM.

For `N=C(N)c1ccc(C(N)P(=O)(O)O)cc1` (stereo unspecified), the Ki [1] was over 1000 µM and the Ki [2] was 345 µM.

With `NC(c1ccc(-n2cccn2)cc1)P(=O)(O)O` (stereo unspecified) the Ki [1] was 0.011 µM and the Ki [2] was 104 µM.
